From patent publication US7812032B2 (Abbott Laboratories, priority 2006, dated 2010) come the findings set out here.

In data set [1] the test system is human mixed lymphocyte reaction (MLR). In words: human mixed lymphocyte reaction (MLR) assay. In kind it is cell-based. The following applies: read-out: Human MLR IC50 ± S.E.M.
Data set [2] in a line: pharmacokinetics after single intravenous dose in cynomolgus monkey. In kind it is in vivo. Conditions: in vivo, iv, 2.5 mg/kg.

For “40-epi-N-[2′-pyridone]-rapamycin [Example 2-pyridone, reference compound]”, the IC50 in data set [1] turned out to be 12.4 ± 5.3 nM. This compound gave a t1/2 in data set [2] of 2.8 h.
For `COC1CC2CCC(C)C(O)(O2)C(=O)C(=O)N2CCCCC2C(=O)OC(C(C)CC2CCC(n3ccc(=O)cc3)C(OC)C2)CC(=O)C(C)C=C(C)C(O)C(OC)C(=O)C(C)CC(C)C=CC=CC=C1C` (stereo not drawn) [Example 4-pyridone, 40-epi-N-[4′-pyridone]-rapamycin, reference compound] the same measures were 0.43 ± 0.2 nM and 13.3 h.

For orientation: IC50 means the concentration that inhibits the measured activity by half.
